The structures appear in SMILES notation.

Nine molecules from patent US8198434B2, “Process for preparing cefsulodin sodium” (IDEXX Laboratories, Inc., priority 2008, dated 2012) can be followed below.

What all share (type): physicochemical
Data set [1] can be described thus: Stability study of cefsulodin sodium stored at 40° C., purity by HPLC (Example 3). The settings on record: for Purity Day 0: Day 0, HPLC peak area; for Purity Day 7: Day 7, HPLC peak area; for Purity Day 14: Day 14, HPLC peak area; for Purity Day 21: Day 21, HPLC peak area; for Purity Day 28: Day 28, HPLC peak area; for Purity Day 35: Day 35, HPLC peak area; for Purity Day 42: Day 42, HPLC peak area; for Purity Day 49: Day 49, HPLC peak area; for Purity Day 56: Day 56, HPLC peak area; for Purity Day 63: Day 63, HPLC peak area; for Purity Day 70: Day 70, HPLC peak area. As to the method:
(§1) Three lots of cefsulodin sodium, prepared according to the process described in Example 2, were stored at 55° C. and 40° C. and the purity of the sample determined as a function of time using HPLC. […] The stability of a lyophilized sample of cefsulodin sodium containing about 5-6% water at 55° C. was also determined. The lyophilized sample was prepared by suspending cefsulodin in water, adding sodium hydroxide until the cefsulodin dissolved, and then removing the water by lyophilization. The area of the HPLC peak corresponding to cefsulodin was used to determine purity. The following assay was used to determine purity:
(§2) 1. 25 mM Sodium Acetate pH 4.5 • a. Measure out 2 L of HPLC grade water. • b. Add 4.1 g of sodium acetate. • c. Mix until dissolved. • d. Adjust the pH to 4.5 with HPLC grade acetic acid. • e. Filter the solution through a nylon filter.
(§3) 2. 3% acetonitrile-97% 25 mM sodium acetate pH 4.5 (Mobile Phase A) • a. Measure out 1940 mL of 25 mM sodium acetate into a 2 L flask. • b. Add 60 mL of HPLC grade acetonitrile. • c. Mix well.
(§4) 3. HPLC Grade acetonitrile (Mobile Phase B) • a. Transfer acetonitrile into a 1 L flask. Sample Preparation:
(§5) 1. Weigh out about 10 mg of cefsulodin into a 15 mL conical tube.
(§6) 2. Add […] of mobile phase A and mix to dissolve (1 mg/mL cefsulodin Stock solution).
(§7) 3. Transfer 1 mL of cefsulodin stock solution into another 15 mL conical tube.
(§8) 4. Add 7 mL of mobile phase A to make a 0.125 mg/mL solution of cefsulodin.
(§9) 5. Filter this solution through a nylon syringe filter into an HPLC vial.
(§10) 6. Analyze the sample by HPLC using the conditions described below.
(§11) Solvents: Pump A-Mobile Phase A • Pump B-Mobile Phase B
(§12) Detection wavelength: 254 nm
(§13) Initial Conditions: 100% Pump A-0% Pump B
(§14) The above gradient can be summarized as follows: maintain at 0% B for 0.3 min; at 0.3 min run a gradient to 70% B for 2.5 min; maintain at 70% B for 1 min; at 3.5 min go back to 0% B for 0.5 min; run at 0% B until the 8.00 min mark.

A short description of data set [2]: Stability study of cefsulodin sodium stored at 55° C., purity by HPLC (Example 3). The settings on record: for Purity Day 0: Day 0, HPLC peak area; for Purity Day 7: Day 7, HPLC peak area; for Purity Day 14: Day 14, HPLC peak area; for Purity Day 21: Day 21, HPLC peak area; for Purity Day 28: Day 28, HPLC peak area; for Purity Day 35: Day 35, HPLC peak area; for Purity Day 42: Day 42, HPLC peak area; for Purity Day 49: Day 49, HPLC peak area; for Purity Day 56: Day 56, HPLC peak area; for Purity Day 63: Day 63, HPLC peak area; for Purity Day 70: Day 70, HPLC peak area. The procedure: as §1, §2, §3, §4, §5, §6, §7, §8, §9, §10, §11, §12, §13, §14

Data set [3] in a line: Stability of needle-shaped and spherical-shaped cefsulodin sodium crystals at 55° C. (Example 5). The settings on record: for Purity Day 1 / Purity Day 7 / Purity Day 14 / Purity Day 21: crystal form stored at 55° C. The procedure:
Needle-shaped cefsulodin sodium crystals were obtain according to a process similar to the process described in Example 2.
Spherical-shaped cefsulodin sodium crystals were obtain according to the process described in Example 3.
The stability of each crystal form was measured at 55° C.

Data set [4] is described as follows: Storage at about room temperature, purity by HPLC.
The nature of another data set: Solubility in water.

`NC(=O)c1cc[n+](CC2=C(C(=O)[O-])N3C(=O)[C@@H](NC(=O)[C@@H](c4ccccc4)S(=O)(=O)[O-])[C@H]3SC2)cc1.[Na+]` [Lot 1, cefsulodin sodium]: in data set [1], the “Purity Day 0” value came out at 99.2%, the “Purity Day 7” value is 98.2%, the “Purity Day 14” value stood at 98.2% and the “Purity Day 21” value was 97.5%. In data set [1], the “Purity Day 28” value came out at 97.2%, the “Purity Day 35” value worked out at 96.4%, the “Purity Day 42” value was 96.3% and the “Purity Day 49” value was 96.4%. Moreover, in data set [1], the “Purity Day 56” value was found to be 96.0%, the “Purity Day 63” value was found to be 96.0% and the “Purity Day 70” value amounted to 95.3%. Moreover, in data set [2], the “Purity Day 0” value turned out to be 99.2%, the “Purity Day 7” value is 97.2%, the “Purity Day 14” value is recorded as 96.0% and the “Purity Day 21” value is listed as 94.9%. Moreover, in data set [2], the “Purity Day 28” value worked out at 94.3%, the “Purity Day 35” value amounted to 93.4%, the “Purity Day 42” value was found to be 91.8% and the “Purity Day 49” value turned out to be 90.9%. In data set [2], the “Purity Day 56” value was 90.5%, the “Purity Day 63” value is listed as 89.8% and the “Purity Day 70” value was 89.1%.
As for `NC(=O)c1cc[n+](CC2=C(C(=O)[O-])N3C(=O)[C@@H](NC(=O)[C@@H](c4ccccc4)S(=O)(=O)[O-])[C@H]3SC2)cc1.[Na+]` [Lot 2, cefsulodin sodium], in data set [1], the “Purity Day 0” value is reported as 99.2%, the “Purity Day 7” value is recorded as 98.5%, the “Purity Day 14” value worked out at 98.3% and the “Purity Day 21” value came out at 97.7%. Moreover, in data set [1], the “Purity Day 28” value amounted to 97.1%, the “Purity Day 35” value stood at 96.8%, the “Purity Day 42” value turned out to be 96.5% and the “Purity Day 49” value is reported as 96.4%. Further, in data set [1], the “Purity Day 56” value was determined as 96.4%, the “Purity Day 63” value was 96.1% and the “Purity Day 70” value is on record as 95.6%. In data set [2], the “Purity Day 0” value was found to be 99.2%, the “Purity Day 7” value is 97.1%, the “Purity Day 14” value stood at 96.1% and the “Purity Day 21” value is 94.7%. Moreover, in data set [2], the “Purity Day 28” value amounted to 94.4%, the “Purity Day 35” value was 92.9%, the “Purity Day 42” value is reported as 91.8% and the “Purity Day 49” value is given as 91.0%. For the same molecule, in data set [2], the “Purity Day 56” value is recorded as 90.1%, the “Purity Day 63” value was 89.8% and the “Purity Day 70” value came out at 89.2%.
With `NC(=O)c1cc[n+](CC2=C(C(=O)[O-])N3C(=O)[C@@H](NC(=O)[C@@H](c4ccccc4)S(=O)(=O)[O-])[C@H]3SC2)cc1.[Na+]` [Lot 3, cefsulodin sodium], in data set [1], the “Purity Day 0” value is 99.3%, the “Purity Day 7” value is recorded as 98.4%, the “Purity Day 14” value came to 98.5% and the “Purity Day 21” value worked out at 98.1%. Moreover, in data set [1], the “Purity Day 28” value is recorded as 97.9%, the “Purity Day 42” value amounted to 96.2%, the “Purity Day 49” value amounted to 97.2% and the “Purity Day 56” value was found to be 97.3%. For the same molecule, in data set [1], the “Purity Day 63” value is 97.0% and the “Purity Day 70” value was 97.0%. Further, in data set [2], the “Purity Day 0” value turned out to be 99.3%, the “Purity Day 7” value is on record as 96.9%, the “Purity Day 14” value was found to be 96.1% and the “Purity Day 21” value was 94.8%. Moreover, in data set [2], the “Purity Day 28” value is listed as 93.9%, the “Purity Day 42” value worked out at 93.4%, the “Purity Day 49” value was 92.6% and the “Purity Day 56” value stood at 92.7%. In addition, in data set [2], the “Purity Day 63” value stood at 91.3% and the “Purity Day 70” value worked out at 91.3%.
Consider `NC(=O)c1cc[n+](CC2=C(C(=O)O)N3C(=O)[C@@H](NC(=O)[C@@H](c4ccccc4)S(=O)(=O)[O-])[C@H]3SC2)cc1` [Lyophilized, cefsulodin sodium], for which, in data set [2], the “Purity Day 0” value is recorded as 98.8% and the “Purity Day 28” value was determined as 80.4%.
`NC(=O)c1cc[n+](CC2=C(C(=O)[O-])N3C(=O)[C@@H](NC(=O)[C@@H](c4ccccc4)S(=O)(=O)[O-])[C@H]3SC2)cc1.[Na+]` [Needle-shaped, cefsulodin sodium]: the “stability of crystal forms (comparison)” value in data set [3] (55° C.) is “more stable than the spherical-shaped crystals”. Moreover, in data set [3], the “Purity Day 1” value is reported as 99.2, the “Purity Day 7” value was 98.1, the “Purity Day 14” value is listed as 96.8 and the “Purity Day 21” value was 95.7.
Turning to `NC(=O)c1cc[n+](CC2=C(C(=O)[O-])N3C(=O)[C@@H](NC(=O)[C@@H](c4ccccc4)S(=O)(=O)[O-])[C@H]3SC2)cc1.[Na+]` [Spherical-shaped, cefsulodin sodium], in data set [3], the “Purity Day 1” value is given as 98.5, the “Purity Day 7” value is listed as 86.3, the “Purity Day 14” value turned out to be 83.7 and the “Purity Day 21” value came out at 83.1.
As for `NC(=O)c1cc[n+](CC2=C(C(=O)O)N3C(=O)[C@@H](NC(=O)[C@@H](c4ccccc4)S(=O)(=O)[O-])[C@H]3SC2)cc1` [cefsulodin sodium], in data set [4] (about room temperature, 29 days), the “purity after storage for 29 days” value came out at 80.4%. In addition, the “purity after storage for 56 days” value in data set [4] (about room temperature, 56 days) worked out at 76.7%. The “purity determined by HPLC before storage” value in data set [4] (initial, before storage at about room temperature) is listed as “about 95%”.
In the case of `NC(=O)c1cc[n+](CC2=C(C(=O)O)N3C(=O)[C@@H](NC(=O)[C@@H](c4ccccc4)S(=O)(=O)[O-])[C@H]3SC2)cc1` [cefsulodin], the solubility in water entry in “Solubility in water” was “insoluble in water”.
As to `NC(=O)c1cc[n+](CC2=C(C(=O)[O-])N3C(=O)[C@@H](NC(=O)[C@@H](c4ccccc4)S(=O)(=O)[O-])[C@H]3SC2)cc1.[Na+]` [monosodium cefsulodin, monosodium salt of cefsulodin], in the data set “Solubility in water”, the solubility in water result is given as “more soluble in water that cefsulodin”.
